Laboratory results reported in article PMC9067983, “Identification of highly selective type II kinase inhibitors with chiral peptidomimetic tails” (Journal of Enzyme Inhibition and Medicinal Chemistry, 2022).
Where a SMILES comes first, the peptide text is derived from it. [ ]: non-standard residue; d: D form. The star is where a group is joined. X1 = Cc1ccc(Nc2ncc3c(n2)N(C)C(=O)N(c2cc(C(=O)*)ccc2C)C3)cn1; Aib = CC(C)(N)C(=O)O

Key:
Lck [1] = target: T1, Lck (Homo sapiens, UniProt P06239); assay: Biochemical IC50 on Lck at Km and 1 mM ATP
T1 construct: purchased Reaction Biology Corp
Procedure: (§1) Full panel kinase profiling and kinase IC50 measurement were performed by using Reaction Biology Corp. (San Diego, USA).

CK1g1 = target: T2, CK1g1 (Homo sapiens, UniProt Q9HCP0); assay: kinase selectivity profiling; assay type: biochemical; details: 10µM ATP, read-out: % inhibition (relative to DMSO)
T2 construct: purchased Reaction Biology Corp
Procedure: as §1

Aurora C = target: T3, Aurora C (Homo sapiens, UniProt Q9UQB9); assay: kinase selectivity profiling; assay type: biochemical; details: 10µM ATP, read-out: % inhibition (relative to DMSO)
T3 construct: purchased Reaction Biology Corp
Procedure: as §1

LATS2 = target: T4, LATS2 (Homo sapiens, UniProt Q9NRM7); assay: kinase selectivity profiling; assay type: biochemical; details: 10µM ATP, read-out: % inhibition (relative to DMSO)
T4 construct: purchased Reaction Biology Corp
Procedure: as §1

LYN B = target: T5, LYN B (Homo sapiens, UniProt P07948); assay: kinase selectivity profiling; assay type: biochemical; details: 10µM ATP, read-out: % inhibition (relative to DMSO)
T5 construct: purchased Reaction Biology Corp
Procedure: as §1

STK16 = target: T6, STK16 (Homo sapiens, UniProt O75716); assay: kinase selectivity profiling; assay type: biochemical; details: 10µM ATP, read-out: % inhibition (relative to DMSO)
T6 construct: purchased Reaction Biology Corp
Procedure: as §1

ERK1 = target: T7, ERK1 (Homo sapiens, UniProt P27361); assay: kinase selectivity profiling; assay type: biochemical; details: 10µM ATP, read-out: % inhibition (relative to DMSO)
T7 construct: purchased Reaction Biology Corp
Procedure: as §1

MST3/STK24 = target: T8, MST3/STK24 (Homo sapiens, UniProt Q9Y6E0); assay: kinase selectivity profiling; assay type: biochemical; details: 10µM ATP, read-out: % inhibition (relative to DMSO)
T8 construct: purchased Reaction Biology Corp
Procedure: as §1

NEK4 = target: T9, NEK4 (Homo sapiens, UniProt P51957); assay: kinase selectivity profiling; assay type: biochemical; details: 10µM ATP, read-out: % inhibition (relative to DMSO)
T9 construct: purchased Reaction Biology Corp
Procedure: as §1

ASK1/MAP3K5 = target: T10, ASK1/MAP3K5 (Homo sapiens, UniProt Q99683); assay: kinase selectivity profiling; assay type: biochemical; details: 10µM ATP, read-out: % inhibition (relative to DMSO)
T10 construct: purchased Reaction Biology Corp
Procedure: as §1

p70S6K/RPS6KB1 = target: T11, p70S6K/RPS6KB1 (Homo sapiens, UniProt P23443); assay: kinase selectivity profiling; assay type: biochemical; details: 10µM ATP, read-out: % inhibition (relative to DMSO)
T11 construct: purchased Reaction Biology Corp
Procedure: as §1

WNK3 = target: T12, WNK3 (Homo sapiens, UniProt Q9BYP7); assay: kinase selectivity profiling; assay type: biochemical; details: 10µM ATP, read-out: % inhibition (relative to DMSO)
T12 construct: purchased Reaction Biology Corp
Procedure: as §1

KSR1 = target: T13, KSR1 (Homo sapiens, UniProt Q8IVT5); assay: kinase selectivity profiling; assay type: biochemical; details: 10µM ATP, read-out: % inhibition (relative to DMSO)
T13 construct: purchased Reaction Biology Corp
Procedure: as §1

TGFBR2 = target: T14, TGFBR2 (Homo sapiens, UniProt P37173); assay: kinase selectivity profiling; assay type: biochemical; details: 10µM ATP, read-out: % inhibition (relative to DMSO)
T14 construct: purchased Reaction Biology Corp
Procedure: as §1

CK1a1L = target: T15, CK1a1L (Homo sapiens, UniProt Q8N752); assay: kinase selectivity profiling; assay type: biochemical; details: 10µM ATP, read-out: % inhibition (relative to DMSO)
T15 construct: purchased Reaction Biology Corp
Procedure: as §1

CDK1/cyclin B = target: T16, CDK1/cyclin B (Homo sapiens, UniProt P06493); assay: kinase selectivity profiling; assay type: biochemical; details: 10µM ATP, read-out: % inhibition (relative to DMSO)
T16 construct: purchased Reaction Biology Corp
Procedure: as §1

STK22D/TSSK1 = target: T17, STK22D/TSSK1 (Homo sapiens, UniProt Q9BXA7); assay: kinase selectivity profiling; assay type: biochemical; details: 10µM ATP, read-out: % inhibition (relative to DMSO)
T17 construct: purchased Reaction Biology Corp
Procedure: as §1

ERBB4/HER4 = target: T18, ERBB4/HER4 (Homo sapiens, UniProt Q15303); assay: kinase selectivity profiling; assay type: biochemical; details: 10µM ATP, read-out: % inhibition (relative to DMSO)
T18 construct: purchased Reaction Biology Corp
Procedure: as §1

Lck (Y394) = assay: Western blot of p-Lck (Y394) in anti-CD3-treated Jurkat cells; assay type: cell-based; details: anti-CD3-treated Jurkat T cells, 10, 50, or 100 μM, 30 min
Procedure: Figure 6. Effect of 7a on the Lck (Y394) activation in anti-CD3-treated Jurkat cells. After treatment with CD3 antibody for coating in plates, cells were seeded and then treated with various concentrations of 7a (10, 50, or 100 μM) or A770041 (1 μM) used as a positive control. The phosphorylation of Lck tyrosine in Jurkat cells was activated by anti-CD3 mAb. Total cellular protein was resolved by SDS-PAGE, transferred to PVDF membranes, and detected with specific p-Lck (Y394) antibody. β-Actin was used as an internal control.
Jurkat cells were purchased from the Korea Cell Line Bank (Seoul, Republic of Korea) and maintained in RPMI-1640 medium containing 10% FBS, streptomycin sulphate, penicillin, HEPES, and sodium bicarbonate in a 5% CO2 atmosphere at 37 °C. Jurkat cells were stimulated with 1 μg/ml of plate-bound anti-CD3 mAb (clone HIT3a, BD Bioscience) and then incubated with KITS 1–001 (10, 50, or 100 μM) for 30 min.
The protein of Jurkat cells was extracted using a PRO-PREP (Intron Biotechnology, Seoul, Republic of Korea). The protein concentration was determined using Bio-Rad protein assay reagent according to the manufacturer’s instruction and BSA (Bio-Rad, Hercules, CA, USA) was used as a standard for quantification. […] The membranes were analysed using an enhanced chemiluminescence (ECL) substrate and imaged by LAS-4000 luminescent image analyser (FUJIFILM, Tokyo, Japan).

Lck [2] = target: T1, Lck; assay: In vitro kinase assay (IC50); assay type: biochemical
Procedure: as §1

Yes = target: T19, Yes (Homo sapiens, UniProt P07947); assay: In vitro kinase assay (IC50); assay type: biochemical
T19 construct: purchased Reaction Biology Corp
Procedure: as §1

Blk = target: T20, Blk (Homo sapiens, UniProt P51451); assay: In vitro kinase assay (IC50); assay type: biochemical
T20 construct: purchased Reaction Biology Corp
Procedure: as §1

Lyn = target: T21, Lyn (Homo sapiens, UniProt P07948); assay: In vitro kinase assay (IC50); assay type: biochemical
T21 construct: purchased Reaction Biology Corp
Procedure: as §1

DDR1 = target: T22, DDR1 (Homo sapiens, UniProt Q08345); assay: In vitro kinase assay (IC50); assay type: biochemical
T22 construct: purchased Reaction Biology Corp
Procedure: as §1

Fgr = target: T23, Fgr (Homo sapiens, UniProt P09769); assay: In vitro kinase assay (IC50); assay type: biochemical
T23 construct: purchased Reaction Biology Corp
Procedure: as §1

Abl1 = target: T24, Abl1 (Homo sapiens, UniProt P00519); assay: In vitro kinase assay (IC50); assay type: biochemical
T24 construct: purchased Reaction Biology Corp
Procedure: as §1

c-Src = target: T25, c-Src (Homo sapiens, UniProt P12931); assay: In vitro kinase assay (IC50); assay type: biochemical
T25 construct: purchased Reaction Biology Corp
Procedure: as §1

p38a = target: T26, p38a (Homo sapiens, UniProt Q16539); assay: In vitro kinase assay (IC50); assay type: biochemical
T26 construct: purchased Reaction Biology Corp
Procedure: as §1

BMX/ETK = target: T27, BMX/ETK (Homo sapiens, UniProt P51813); assay: In vitro kinase assay (IC50); assay type: biochemical
T27 construct: purchased Reaction Biology Corp
Procedure: as §1

T1 sequence (P06239 whole entry): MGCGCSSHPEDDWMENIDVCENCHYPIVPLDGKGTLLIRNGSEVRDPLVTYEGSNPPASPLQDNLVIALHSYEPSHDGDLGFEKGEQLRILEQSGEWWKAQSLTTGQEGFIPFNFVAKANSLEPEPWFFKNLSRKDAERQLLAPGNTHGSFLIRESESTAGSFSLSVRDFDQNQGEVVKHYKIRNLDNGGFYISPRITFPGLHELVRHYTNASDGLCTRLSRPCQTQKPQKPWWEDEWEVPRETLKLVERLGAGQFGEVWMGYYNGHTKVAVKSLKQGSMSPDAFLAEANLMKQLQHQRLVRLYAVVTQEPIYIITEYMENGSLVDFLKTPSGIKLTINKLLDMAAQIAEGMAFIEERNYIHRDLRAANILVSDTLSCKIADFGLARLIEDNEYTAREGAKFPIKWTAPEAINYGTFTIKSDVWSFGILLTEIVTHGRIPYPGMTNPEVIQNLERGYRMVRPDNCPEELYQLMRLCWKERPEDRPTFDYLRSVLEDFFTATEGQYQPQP
T18 sequence (Q15303 26-1308): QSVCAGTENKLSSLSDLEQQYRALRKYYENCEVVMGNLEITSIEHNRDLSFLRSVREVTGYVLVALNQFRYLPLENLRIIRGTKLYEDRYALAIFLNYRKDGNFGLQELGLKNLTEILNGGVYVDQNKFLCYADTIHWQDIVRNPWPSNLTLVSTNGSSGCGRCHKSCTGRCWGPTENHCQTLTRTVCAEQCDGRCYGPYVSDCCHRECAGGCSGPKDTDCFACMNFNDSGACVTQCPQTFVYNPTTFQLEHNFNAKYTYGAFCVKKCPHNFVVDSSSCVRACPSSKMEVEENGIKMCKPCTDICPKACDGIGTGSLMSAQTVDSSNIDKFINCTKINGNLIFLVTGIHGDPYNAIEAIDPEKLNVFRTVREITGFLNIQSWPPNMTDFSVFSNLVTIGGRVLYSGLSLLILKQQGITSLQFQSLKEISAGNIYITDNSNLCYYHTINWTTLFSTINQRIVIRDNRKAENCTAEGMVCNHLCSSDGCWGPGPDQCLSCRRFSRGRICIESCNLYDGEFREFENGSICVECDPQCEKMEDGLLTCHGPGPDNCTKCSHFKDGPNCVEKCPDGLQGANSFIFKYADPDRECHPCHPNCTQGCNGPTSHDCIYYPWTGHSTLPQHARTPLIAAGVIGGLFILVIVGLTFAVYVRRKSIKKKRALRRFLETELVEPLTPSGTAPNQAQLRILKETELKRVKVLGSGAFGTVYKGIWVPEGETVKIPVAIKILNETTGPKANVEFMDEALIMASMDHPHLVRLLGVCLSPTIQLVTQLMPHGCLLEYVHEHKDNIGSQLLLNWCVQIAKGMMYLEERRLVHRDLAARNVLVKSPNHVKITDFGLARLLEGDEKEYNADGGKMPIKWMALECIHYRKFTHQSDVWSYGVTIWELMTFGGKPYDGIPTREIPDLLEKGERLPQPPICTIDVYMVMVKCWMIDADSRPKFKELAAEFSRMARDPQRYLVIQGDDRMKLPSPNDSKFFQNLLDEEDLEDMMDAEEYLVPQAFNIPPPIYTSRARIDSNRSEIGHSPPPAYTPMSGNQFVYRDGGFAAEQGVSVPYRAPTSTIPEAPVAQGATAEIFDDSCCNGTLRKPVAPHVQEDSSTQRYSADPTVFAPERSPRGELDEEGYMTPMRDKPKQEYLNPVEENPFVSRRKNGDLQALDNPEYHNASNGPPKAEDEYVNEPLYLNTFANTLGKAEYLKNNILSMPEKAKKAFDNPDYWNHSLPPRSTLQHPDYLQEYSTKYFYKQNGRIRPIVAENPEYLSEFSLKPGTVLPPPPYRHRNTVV
T17 sequence (Q9BXA7 whole entry): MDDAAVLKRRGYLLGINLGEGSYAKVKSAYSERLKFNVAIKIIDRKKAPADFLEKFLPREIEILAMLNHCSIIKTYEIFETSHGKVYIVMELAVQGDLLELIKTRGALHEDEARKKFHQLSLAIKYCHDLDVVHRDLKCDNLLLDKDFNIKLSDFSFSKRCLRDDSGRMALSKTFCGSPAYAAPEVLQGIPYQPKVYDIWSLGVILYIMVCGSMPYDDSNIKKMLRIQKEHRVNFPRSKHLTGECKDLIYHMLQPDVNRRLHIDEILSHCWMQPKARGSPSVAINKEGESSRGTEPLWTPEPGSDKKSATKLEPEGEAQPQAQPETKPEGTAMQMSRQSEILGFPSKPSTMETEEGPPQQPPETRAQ
T25 sequence (P12931 whole entry): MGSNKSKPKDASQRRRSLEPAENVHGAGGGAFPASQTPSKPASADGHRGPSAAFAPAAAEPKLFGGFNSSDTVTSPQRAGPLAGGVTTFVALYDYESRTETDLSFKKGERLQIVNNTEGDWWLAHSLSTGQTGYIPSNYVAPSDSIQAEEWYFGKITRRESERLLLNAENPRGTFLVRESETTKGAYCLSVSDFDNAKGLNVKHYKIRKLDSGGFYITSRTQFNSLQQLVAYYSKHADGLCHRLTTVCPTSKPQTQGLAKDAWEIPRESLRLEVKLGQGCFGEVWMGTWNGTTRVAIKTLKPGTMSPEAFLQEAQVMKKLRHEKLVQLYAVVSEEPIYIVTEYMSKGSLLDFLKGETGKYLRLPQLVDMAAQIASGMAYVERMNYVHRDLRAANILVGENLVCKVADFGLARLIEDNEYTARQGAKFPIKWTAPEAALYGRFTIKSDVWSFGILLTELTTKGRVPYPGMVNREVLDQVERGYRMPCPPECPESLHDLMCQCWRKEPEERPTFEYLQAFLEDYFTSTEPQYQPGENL
T24 sequence (P00519 whole entry): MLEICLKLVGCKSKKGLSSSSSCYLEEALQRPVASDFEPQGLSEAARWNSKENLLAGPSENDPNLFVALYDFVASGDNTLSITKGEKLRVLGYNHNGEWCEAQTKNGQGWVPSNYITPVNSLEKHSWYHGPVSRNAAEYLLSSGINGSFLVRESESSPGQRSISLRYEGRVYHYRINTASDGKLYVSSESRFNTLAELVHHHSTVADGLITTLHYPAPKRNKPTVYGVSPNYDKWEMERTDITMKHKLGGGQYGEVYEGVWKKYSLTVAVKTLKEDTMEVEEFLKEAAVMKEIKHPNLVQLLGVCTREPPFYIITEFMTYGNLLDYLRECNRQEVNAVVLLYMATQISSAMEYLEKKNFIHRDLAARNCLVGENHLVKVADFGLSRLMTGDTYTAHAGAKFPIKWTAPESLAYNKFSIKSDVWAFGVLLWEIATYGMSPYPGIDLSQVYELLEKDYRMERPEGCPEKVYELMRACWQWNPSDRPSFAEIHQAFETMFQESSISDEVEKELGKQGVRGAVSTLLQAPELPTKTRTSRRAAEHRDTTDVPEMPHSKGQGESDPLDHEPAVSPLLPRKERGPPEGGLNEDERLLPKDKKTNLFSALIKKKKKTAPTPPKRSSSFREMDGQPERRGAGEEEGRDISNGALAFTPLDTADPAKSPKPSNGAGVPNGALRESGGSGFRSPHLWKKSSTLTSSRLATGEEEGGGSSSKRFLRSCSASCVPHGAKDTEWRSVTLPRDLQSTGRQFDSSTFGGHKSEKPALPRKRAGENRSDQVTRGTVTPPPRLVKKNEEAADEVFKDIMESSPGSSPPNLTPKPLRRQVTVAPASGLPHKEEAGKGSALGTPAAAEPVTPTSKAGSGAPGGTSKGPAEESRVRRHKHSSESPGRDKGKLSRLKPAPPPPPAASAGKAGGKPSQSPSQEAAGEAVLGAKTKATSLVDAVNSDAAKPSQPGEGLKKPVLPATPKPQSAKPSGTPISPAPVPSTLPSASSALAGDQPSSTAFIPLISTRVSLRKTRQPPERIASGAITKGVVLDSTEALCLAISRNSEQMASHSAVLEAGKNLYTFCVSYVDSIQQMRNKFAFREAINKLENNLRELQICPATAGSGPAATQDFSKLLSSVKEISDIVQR
T3 sequence (Q9UQB9 whole entry): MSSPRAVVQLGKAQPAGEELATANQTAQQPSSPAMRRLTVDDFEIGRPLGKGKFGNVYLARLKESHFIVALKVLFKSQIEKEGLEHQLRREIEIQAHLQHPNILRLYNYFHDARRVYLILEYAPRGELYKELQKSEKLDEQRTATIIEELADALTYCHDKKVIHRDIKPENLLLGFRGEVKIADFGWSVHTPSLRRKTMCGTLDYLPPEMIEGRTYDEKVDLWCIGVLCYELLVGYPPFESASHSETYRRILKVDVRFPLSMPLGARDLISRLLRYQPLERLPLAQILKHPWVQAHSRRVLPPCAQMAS
T20 sequence (P51451 whole entry): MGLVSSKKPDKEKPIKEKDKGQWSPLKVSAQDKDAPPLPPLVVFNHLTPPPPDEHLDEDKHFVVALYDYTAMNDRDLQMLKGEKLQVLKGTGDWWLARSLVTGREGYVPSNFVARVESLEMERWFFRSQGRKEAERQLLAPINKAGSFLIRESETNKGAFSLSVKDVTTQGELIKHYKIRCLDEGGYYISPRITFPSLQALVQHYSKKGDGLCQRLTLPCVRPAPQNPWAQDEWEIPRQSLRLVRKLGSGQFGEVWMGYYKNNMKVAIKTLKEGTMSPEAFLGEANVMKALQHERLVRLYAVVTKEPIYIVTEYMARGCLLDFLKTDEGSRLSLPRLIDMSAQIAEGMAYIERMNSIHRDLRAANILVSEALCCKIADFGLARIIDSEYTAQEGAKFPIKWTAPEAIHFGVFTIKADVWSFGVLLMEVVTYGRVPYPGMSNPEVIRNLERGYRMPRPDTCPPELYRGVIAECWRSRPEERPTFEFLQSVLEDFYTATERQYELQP
T26 sequence (Q16539 whole entry): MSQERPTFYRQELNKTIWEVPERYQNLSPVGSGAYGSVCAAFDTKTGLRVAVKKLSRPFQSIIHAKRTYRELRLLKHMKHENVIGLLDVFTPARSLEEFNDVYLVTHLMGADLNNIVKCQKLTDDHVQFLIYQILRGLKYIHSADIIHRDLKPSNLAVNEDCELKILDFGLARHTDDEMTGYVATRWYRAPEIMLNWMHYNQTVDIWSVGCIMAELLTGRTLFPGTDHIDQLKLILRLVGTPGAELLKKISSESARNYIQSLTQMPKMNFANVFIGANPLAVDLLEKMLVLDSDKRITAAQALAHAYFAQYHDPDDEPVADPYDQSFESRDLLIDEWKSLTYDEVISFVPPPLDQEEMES

Cc1ccc(Nc2ncc3c(n2)N(C)C(=O)N(c2cc(C(=O)N[C@H](C(=O)N4CCC[C@H]4C(=O)NC(C)(C)C(=O)N[C@@H](CC(C)C)C(=O)N(C)C)C(C)C)ccc2C)C3)cn1 [7a, (S)-N-(1-(((S)-1-(dimethylamino)-4-methyl-1-oxopentan-2-yl)amino)-2-methyl-1-oxopropan-2-yl)-1-((4-methyl-3-(1-methyl-7-((6-methylpyridin-3-yl)amino)-2-oxo-1,4-dihydropyrimido[4,5-d]pyrimidin-3(2H)-yl)benzoyl)-L-valyl)pyrrolidine-2-carboxamide] (X1-VP[Aib]L-NMe2)
IC50 (Lck [1]; ATP conc. 14 µM (Km)): 190 nM
IC50 (Lck [1]; ATP conc. 1 mM): 21000 nM
mode of inhibition (Lck [1]; IC50 at Km vs 1 mM ATP): ATP competitive kinase inhibitors
inhibition at 1 µM (CK1g1): 0%
inhibition at 1 µM (Aurora C): 0%
inhibition at 1 µM (LATS2): 1%
inhibition at 1 µM (LYN B): 34%
inhibition at 1 µM (STK16): 0%
inhibition at 1 µM (ERK1): 7%
inhibition at 1 µM (MST3/STK24): 0%
inhibition at 1 µM (NEK4): 0%
inhibition at 1 µM (ASK1/MAP3K5): 0%
inhibition at 1 µM (p70S6K/RPS6KB1): 0%
inhibition at 1 µM (WNK3): 19%
inhibition at 1 µM (KSR1): 2%
inhibition at 1 µM (TGFBR2): 0%
inhibition at 1 µM (CK1a1L): 0%
inhibition at 1 µM (CDK1/cyclin B): 7%
inhibition at 1 µM (STK22D/TSSK1): 6%
inhibition at 1 µM (ERBB4/HER4): 53%
phosphorylated Lck levels at tyrosine 394 (Lck (Y394)): markedly reduced the phosphorylated Lck levels at tyrosine 394 residue in a concentration-dependent manner
IC50 (Lck [2]): 23 nM
selectivity for Lck over c-Src (Lck [2]): over 10 fold
Lck selectivity over c-Src (c-Src IC50 / Lck IC50) (Lck [2]; Table 2): 37
IC50 (Yes): 495 nM
IC50 (Blk): 253 nM
IC50 (Lyn): 671 nM
IC50 (DDR1): 110 nM
IC50 (Fgr): 201 nM
IC50 (Abl1): 378 nM
IC50 (c-Src): 861 nM
IC50 (p38a): > 10000 nM
IC50 (BMX/ETK): 293 nM
